Laboratory results from patent publication US5646148A, “HIV protease inhibitors useful for the treatment of AIDS” (Merck & Co., Inc., priority 1995, dated 1997).
pIC50: −log10 of the molar value.

Assays:
HIV protease = target: T1, HIV protease (Human immunodeficiency virus type 1 group M subtype B, UniProt P04585); assay: Assay for Inhibition of Microbial Expressed HIV Protease; assay type: biochemical; settings: protease expressed in Eschericia coli; peptide substrate Val-Ser-Gln-Asn-(betanapthyl)Ala-Pro-Ile-Val; 50 mM Na acetate, pH 5.5, 30° C., 1 hour; HPLC
T1 construct: the protease expressed in Eschericia coli; made in house; host or cells: Escherichia coli
Method: Inhibition studies of the reaction of the protease expressed in Eschericia coli with a peptide substrate [Val-Ser-Gln-Asn-(betanapthyl)Ala-Pro-Ile-Val, 0.5 mg/mL at the time the reaction is initiated] were in 50 mM Na acetate, pH 5.5, at 30° C. for 1 hour. Various concentrations of inhibitor in 1.0 μl DMSO were added to 25 μl of the peptide solution in water. The reaction is initiated by the addition of 15 μl of 0.33 nM protease (0.11 ng) in a solution of 0.133M Na acetate pH 5.5 and 0.1% bovine serum albumin. The reaction was quenched with 160 μl of 5% phosphoric acid. Products of the reaction were separated by HPLC (VYDAC wide pore 5 cm C-18 reverse phase, acetonitrile gradient, 0.1% phosphoric acid). The extent of inhibition of the reaction was determined from the peak heights of the products.

HIV-1 = assay: Cell spread assay: inhibition of the spread of HIV in cell culture (MT-4 T-lymphoid cells, p24); assay type: cell-based; settings: Human immunodeficiency virus 1, 72 h, MT-4 T-lymphoid cells infected with HIV-1 (wild-type), 24 h preincubation, then 3 additional days with inhibitor, read-out: CIC95, inhibitor concentration which reduced the spread of infection by at least 95%
Method: Inhibition of the spread of HIV in cell culture was measured according to Nunberg, J. H. et al., J. Virol. 65, 4887 (1991). In this assay, MT-4 T-lymphoid cells were infected with HIV-1 (wild-type, unless otherwise indicated) by using a predetermined inoculum, and cultures were incubated for 24 h. At this time, ≤1% of the cells were positive by indirect immunofluorescence. Cells were then extensively washed and distributed into 96-well culture dishes. Serial twofold dilutions of inhibitor were added to the wells, and cultures were continued for 3 additional days. At 4 days postinfection, 100% of the cells in control cultures were infected. HIV-1 p24 accumulation was directly correlated with virus spread. The cell culture inhibitory concentration was defined as the inhibitor concentration in nanomoles/liter which reduced the spread of infection by at least 95%, or CIC95. The CIC95 for compound A is 25 nM.
INHIBITION OF VIRUS SPREAD
A. Preparation of HIV-infected MT-4 cell Suspension. […]
The concentration of HIV p24 antigen is measured by an enzyme immunoassay, described as follows. Aliquots of p24 antigen to be measured are added to microwells coated with a monoclonal antibody specific for HIV core antigen. […]

Compound: CC(C)(C)NC(=O)C1CN(Cc2cnc3occc3c2)CCN1CC(O)CC(Cc1ccccc1)C(=O)NC1c2ccccc2CC1O [Compound A, N-(2(R)-hydroxy-1(S)-indanyl)-2(R)-phenylmethyl-4(S)-hydroxy-5-(1-(4-(3-furo[2,3-b]pyridylmethyl)-2(S)-N'-(t-butylcarboxamido)-piperazinyl))pentaneamide]
- pIC50 (HIV protease): ~9.57
- IC95 (HIV-1): 25 nM
